{
  "source": "patent US10363229B2",
  "about": "“Methods and compositions for the treatment of cancer” (priority 2009, dated 2019)",
  "key": {"[1]": {"tested_on": "CEM cells, leukemic T-cell lymphocytes", "test": "Apoptosis of leukemic lymphocytes, FITC-annexinV/propidium iodide microscopy", "assay_type": "cell-based, human", "conditions": "for apoptotic leukemic lymphocytes: 20 hours", "protocol": "Cloudman S-91 mouse melanoma cells (sub-clone M-3, CCL 53.1; American Type Culture Collection, Rockville, Md.) were grown in RMPI medium supplemented with 10% fetal bovine serum (Invitrogen, Inc) and 5% penicillin-streptomycin (Invitrogen, Inc). Mouse breast cancer cells (66Cl-1; American Type Culture Collection, Rockville, Md.) that are estrogen-receptor negative were grown in DMEM medium supplemented with 10% fetal bovine serum (Invitrogen, Inc) and 5% penicillin/streptomycin (Invitrogen, Inc). Human T-cell leukemic lymphocytes (CEM; American Type Culture Collection, Rockville, Md.) were grown in MEM medium supplemented with 7% fetal calf serum. Cultures were passaged twice a week.\nCEM cells, leukemic T-cell lymphocytes obtained from a child with acute lymphocytic leukemia, were maintained in Petri dishes in MEM (minimal essential medium) with 7% fetal calf serum in a 5% CO2 incubator at 37° C. For experiments, methyl sulfone was added to the medium at concentrations from 0-6.0%. In control cells, no methyl sulfone was added. Cells (2×10^6 per ml) were incubated for 20 hrs in the presence or absence of methyl sulfone, and then assayed for apoptosis using FITC-annexinV/propidium iodide microscopy. Methyl sulfone was also compared to the anti-microtubule drug, vinblastine. Vinblastine (VNB) and its derivative, vincristine, are standard treatments for acute lymphocytic leukemia, as well as other cancers. We used the concentration of VNB that is found in the blood of subjects being treated with this drug (10^−7 M) (6,7)."}, "[2]": {"tested_on": "SKP2 and p27 in 66 and M3 cells", "test": "Immunofluorescence of SKP2 and p27 in cancer cells (Example 2)", "assay_type": "cell-based, mouse", "conditions": "2% methyl sulfone, four weeks", "text": "SKP2 is a ubiquitin ligase that is active in cell nuclei and is expressed in many types of malignant cells. SKP2 promotes cell cycling and cell proliferation and promotes the degradation of the tumor suppressor protein p27. p27 is a tumor suppressor that is active when located in cell nuclei and in a non-phosphorylated form. p27 promotes cell cycle arrest and senescence.\nIn normal differentiated cells, p27 (non-phosphorylated active form) is located in the nucleus. […] This was confirmed in the experiments described below. The nuclei were stained with DAPI (blue) and corresponding p27 (red) or SKP2 (red), and then merged the p27/DAPI and SKP2/DAPI photos.\nCells were plated at 1×10^5 cells/ml on 12 mm round coverslips in 35 mm tissue culture plates (final volume of media was 1.5 ml/35 mm plate). At 24 hours after plating, media was replaced with fresh media containing 2% methyl sulfone and cells were incubated in media/2% methyl sulfone for four weeks. Media/2% methyl sulfone was changed every Monday, Wednesday, and Friday Immunofluorescence was performed at four weeks after plating to look for the presence of the following proteins: SKP2 and p27 (Santa Cruz Biotechnology). […]"}, "melanoma cells": {"tested_on": "melanoma cells", "test": "Cell wounding / wound healing", "assay_type": "cell-based, mouse", "conditions": "2% methyl sulfone", "protocol": "Cells were cultured to approximately 90% confluence in 35 mm tissue culture plates. Methyl sulfone (2%) was added to half the plates and 48 hours later cells were wounded with a sterile plastic 1000 μl pipette tip. Cells were washed two times with medium to remove cell debris and incubated at 37° C. over night in RMPI medium +/−2% methyl sulfone. After 72 hours, wound edges were photographed and recorded with a Nikon TE300 inverted microscope (Nikon) equipped with a 10×0.25 NA Plan Achromat objective lens. Time-series (5 min long) of phase contrast images were acquired at a video rate (1 frame/3s) with a Watec-902B CCD video camera (Watec Corp., Japan) via stream acquisition option of Metamorph image acquisition and analysis software (Universal Imaging Corp., Downington, Pa.). During the recordings, cells were kept at 37° C. and 10 mM Hepes. Time series and photographs of cells +/−2% methyl sulfone were obtained every 24 hours for up to 120 hrs.\nWe tested whether melanoma cells treated with 2% methyl sulfone would function properly in the process of wound healing. As described in herein, control melanoma cells and cells treated with 2% methyl sulfone were grown to confluence. Scraping a layer of confluent cells with a plastic pipette tip formed wounds. Live cell video microscopy was used to monitor migration of cells into the wound."}},
  "data": [
    {"substance": "methyl sulfone", "values": [
      {"measurement": "apoptotic leukemic lymphocytes", "setting": "[1]; 4% methyl sulfone", "value": 74, "unit": "%"},
      {"measurement": "apoptotic leukemic lymphocytes", "setting": "[1]; 6% methyl sulfone", "value": 88, "unit": "%"},
      {"measurement": "effectiveness against leukemic lymphocytes compared with vinblastine", "setting": "[1]; comparison with 10^−7 M vinblastine", "value": "more effective than vinblastine"},
      {"measurement": "SKP2 level and location", "setting": "[2]", "value": "low levels of SKP2 in the cytoplasm"},
      {"measurement": "p27 expression and location", "setting": "[2]", "value": "high expression of p27 in the nucleus"},
      {"measurement": "behaviour when the wound was covered", "setting": "melanoma cells", "value": "stopped migrating and once again became contact inhibited"},
      {"measurement": "rate of migration into the wound area", "setting": "melanoma cells", "value": "slower rate than control cells"}
    ]}
  ]
}
